SMILES strings stand for the structures. Where only a bound is given, the exact number is not on record here.

Data set [1] deals with Mus musculus. The data set can be described thus: Antipsychotic activity in po dosed mouse assessed as reversal of MK-801-induced hyperactivity. The data set is classed as functional.
For data set [2], the system named is Mus musculus. In words: Antipsychotic activity in po dosed mouse assessed as reversal of apomorphine-induced climbing activity. The data set is classed as functional.
The subject of data set [3] is Mus musculus. In words: Toxicity in po dosed mouse assessed as catalepsy. The conditions noted are these: in vivo. In kind it is organism-based.
The target in data set [4] is T1, 5-hydroxytryptamine receptor 1A (Rattus norvegicus, UniProt P19327).
T1 sequence (P19327 whole entry): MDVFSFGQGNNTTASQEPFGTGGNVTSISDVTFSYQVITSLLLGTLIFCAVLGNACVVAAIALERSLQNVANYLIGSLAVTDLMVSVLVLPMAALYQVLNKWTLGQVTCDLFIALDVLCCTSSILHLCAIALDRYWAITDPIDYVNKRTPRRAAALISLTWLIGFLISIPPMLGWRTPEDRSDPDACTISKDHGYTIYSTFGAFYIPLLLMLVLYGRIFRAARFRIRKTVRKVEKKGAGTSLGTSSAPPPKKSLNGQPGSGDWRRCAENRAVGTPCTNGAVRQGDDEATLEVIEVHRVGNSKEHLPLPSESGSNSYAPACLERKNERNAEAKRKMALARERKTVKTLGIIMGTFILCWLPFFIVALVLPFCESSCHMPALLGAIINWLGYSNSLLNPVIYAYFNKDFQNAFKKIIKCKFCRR
In words: Displacement of [3H]8-OH-DPAT from 5HT1A receptor in rat brain cortex. The data set is classed as tissue-based. (In a radioligand displacement assay an active substance lowers the binding of a labelled ligand.)

The target in data set [5] is 5-hydroxytryptamine receptor 2A (Rattus norvegicus, UniProt P14842). The data set can be described thus: Displacement of [3H]ketanserin from 5HT2A receptor in rat brain cortex. In kind it is tissue-based.
In the next data set the target is D(2) dopamine receptor (Rattus norvegicus, UniProt P61169). The data set can be described thus: Displacement of [3H]spiperone from dopamine D2 receptor in rat striatum.
Data set [6] deals with Mus musculus. In words: Selectivity ratio of ED50 for po dosed mouse assessed as catalepsy to ED50 for po dosed mouse assessed as reversal of MK-801-induced hyperactivity.
Data set [7] deals with Mus musculus. The data set can be described thus: Selectivity ratio of ED50 for po dosed mouse assessed as catalepsy to ED50 for po dosed mouse assessed as reversal of apomorphine-induced climbing activity.
In data set [8] the test system is Mus musculus. The data set can be described thus: Antipsychotic activity in po dosed mouse assessed as reversal of DOI-induced head twitch activity. The data set is classed as functional.

Chain of 5-hydroxytryptamine receptor 2A (P14842 whole entry): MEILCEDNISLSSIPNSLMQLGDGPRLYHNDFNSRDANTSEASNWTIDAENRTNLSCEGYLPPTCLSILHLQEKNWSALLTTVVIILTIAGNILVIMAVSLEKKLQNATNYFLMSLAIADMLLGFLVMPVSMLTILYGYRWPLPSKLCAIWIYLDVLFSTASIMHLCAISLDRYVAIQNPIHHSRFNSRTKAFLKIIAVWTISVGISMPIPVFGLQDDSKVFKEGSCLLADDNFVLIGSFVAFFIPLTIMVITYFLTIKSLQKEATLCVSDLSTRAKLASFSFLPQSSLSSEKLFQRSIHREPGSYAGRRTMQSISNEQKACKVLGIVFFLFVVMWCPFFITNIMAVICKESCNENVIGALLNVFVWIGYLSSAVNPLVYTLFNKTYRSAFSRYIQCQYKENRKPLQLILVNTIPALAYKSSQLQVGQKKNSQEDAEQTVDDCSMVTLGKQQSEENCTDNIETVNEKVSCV
Chain of D(2) dopamine receptor (P61169 whole entry): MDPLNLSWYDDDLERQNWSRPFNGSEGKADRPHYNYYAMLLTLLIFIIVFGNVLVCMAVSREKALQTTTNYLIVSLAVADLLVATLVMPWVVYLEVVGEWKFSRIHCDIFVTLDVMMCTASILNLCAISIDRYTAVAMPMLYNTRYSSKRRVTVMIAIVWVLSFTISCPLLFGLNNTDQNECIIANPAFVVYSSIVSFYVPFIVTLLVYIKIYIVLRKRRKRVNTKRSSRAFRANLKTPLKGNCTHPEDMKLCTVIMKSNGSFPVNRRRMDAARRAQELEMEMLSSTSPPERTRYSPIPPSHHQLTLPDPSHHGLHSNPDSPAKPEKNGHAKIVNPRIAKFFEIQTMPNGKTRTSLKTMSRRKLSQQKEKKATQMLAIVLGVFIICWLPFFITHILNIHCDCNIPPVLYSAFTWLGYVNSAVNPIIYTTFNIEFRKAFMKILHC

As to `CN1CCN(C2=Nc3cc(Cl)ccc3Nc3ccccc32)CC1` [CLOZAPINE], the ED50 in the data set with Mus musculus [1] came to 2.11 mg/kg; in the data set on Mus musculus [2], 4.52 mg/kg; with Mus musculus [3], 55.89 mg/kg.

As for `CC(C)(C)C(=O)N1CCC(CN2CCC(c3noc4cc(F)ccc34)CC2)CC1`, the values for the Ki (in data set [4]; in data set [5]; at D(2) dopamine receptor) were over 10000 nM, 310 nM and over 10000 nM, respectively.

With `Cc1ccc(NC(=O)N2CCC(CN3CCC(c4noc5cc(F)ccc45)CC3)CC2)cc1`, the Ki is 276 nM in data set [4], 26.9 nM in data set [5] and 178 nM at D(2) dopamine receptor.

Take `O=[N+]([O-])c1cccc(S(=O)(=O)N2CCC(CN3CCC(c4noc5cc(F)ccc45)CC3)CC2)c1`: the Ki amounted to 917 nM in data set [4], 135 nM in data set [5] and 759 nM on D(2) dopamine receptor.

Regarding `N#Cc1ccc(S(=O)(=O)N2CCC(CN3CCC(c4noc5cc(F)ccc45)CC3)CC2)cc1`, the Ki came out at 479 nM in data set [4], 113 nM in data set [5] and 190 nM on D(2) dopamine receptor.

For the compound `O=S(=O)(c1ccc(F)cc1)N1CCC(CN2CCC(c3noc4cc(F)ccc34)CC2)CC1`, the results for the inhibition constant Ki (in data set [4]; in data set [5]; on D(2) dopamine receptor) were 789 nM, 368 nM and 211 nM, respectively.

On to `O=C(CCCN1CCC(O)(c2ccc(Cl)cc2)CC1)c1ccc(F)cc1` [HALOPERIDOL], for which the ED50 with Mus musculus [1] stood at 0.14 mg/kg; with Mus musculus [2], 0.17 mg/kg; with Mus musculus [3], 0.47 mg/kg. For the same compound, the “Ratio ED50” value was 3.4 with Mus musculus [6] and 2.8 in the data set with Mus musculus [7].

For `O=[N+]([O-])c1ccc(S(=O)(=O)N2CCC(CCN3CCC(c4noc5cc(F)ccc45)CC3)CC2)cc1`, the Ki in data set [4] was 1370 nM; in [5] it was 66.8 nM; on D(2) dopamine receptor, over 10000 nM.

For the compound `O=[N+]([O-])c1ccc(S(=O)(=O)N2CCCC(CN3CCC(c4noc5cc(F)ccc45)CC3)C2)cc1` (stereo not drawn), the Ki in data set [4] stood at 990 nM; in data set [5] it was 30.1 nM; on D(2) dopamine receptor it was 1100 nM.

With `O=S(=O)(c1ccc2ccccc2c1)N1CCC(CN2CCC(c3noc4cc(F)ccc34)CC2)CC1`, the Ki in [4] stood at 1200 nM; in [5], 32.6 nM; on D(2) dopamine receptor, 1380 nM.

For `CN(C)C(=O)N1CCC(CN2CCC(c3noc4cc(F)ccc34)CC2)CC1`, the Ki in data set [4] was over 10000 nM; in data set [5], 569 nM; on D(2) dopamine receptor it was over 10000 nM.

Take `O=C(c1ccc(F)cc1)N1CCC(CN2CCC(c3noc4cc(F)ccc34)CC2)CC1`: the Ki in data set [4] came to 157 nM; in data set [5] it was 19 nM; at D(2) dopamine receptor it was 86.8 nM.

With `COc1ccc(C(=O)N2CCC(CN3CCC(c4noc5cc(F)ccc45)CC3)CC2)cc1`, the Ki in [4] worked out at 2500 nM; in [5], 121 nM; at D(2) dopamine receptor it was 1190 nM.

`O=C(c1ccc([N+](=O)[O-])cc1)N1CCC(CN2CCC(c3noc4cc(F)ccc34)CC2)CC1`: the Ki in data set [4] amounted to 269 nM; in data set [5], 71.8 nM; on D(2) dopamine receptor, 195 nM.

Take `O=C(/C=C/c1ccccc1)N1CCC(CN2CCC(c3noc4cc(F)ccc34)CC2)CC1`: the Ki in [4] was over 10000 nM; in [5] it was 2110 nM; at D(2) dopamine receptor it was over 10000 nM.

As to `O=C(Nc1ccc(Cl)cc1)N1CCC(CN2CCC(c3noc4cc(F)ccc34)CC2)CC1`, the Ki in data set [4] is 299 nM; in data set [5], 6.8 nM; on D(2) dopamine receptor, 85.6 nM.

With `O=[N+]([O-])c1ccccc1S(=O)(=O)N1CCC(CN2CCC(c3noc4cc(F)ccc34)CC2)CC1`, the values for the Ki (in data set [4]; in data set [5]; on D(2) dopamine receptor) were 1010 nM, 26.9 nM and 590 nM, respectively.

As to `Cc1nc2n(c(=O)c1CCN1CCC(c3noc4cc(F)ccc34)CC1)CCCC2` [RISPERIDONE], the median effective dose (ED50) is 0.013 mg/kg in the data set on Mus musculus [1], 0.038 mg/kg with Mus musculus [8], 0.012 mg/kg with Mus musculus [2] and 0.38 mg/kg in the data set with Mus musculus [3].

Regarding `Cc1ccc(S(=O)(=O)N2CCC(CN3CCC(c4noc5cc(F)ccc45)CC3)CC2)cc1`, the Ki was over 10000 nM in data set [4], 1520 nM in data set [5] and 1290 nM on D(2) dopamine receptor.

In the case of `CCN(C)C(=O)N1CCC(CN2CCC(c3noc4cc(F)ccc34)CC2)CC1`, the figures for the Ki (in data set [4]; in [5]; on D(2) dopamine receptor) were over 10000 nM, 1100 nM and over 10000 nM, respectively.

On to `O=C(NCc1ccccc1)N1CCC(CN2CCC(c3noc4cc(F)ccc34)CC2)CC1`, for which the Ki in data set [4] was over 10000 nM; in data set [5], 265 nM; at D(2) dopamine receptor it was 1270 nM.

With `O=C(c1ccccc1)N1CCC(CN2CCC(c3noc4cc(F)ccc34)CC2)CC1`, the Ki amounted to 599 nM in [4], 114 nM in data set [5] and 1270 nM at D(2) dopamine receptor.

In the case of `O=C(C1CC1)N1CCC(CN2CCC(c3noc4cc(F)ccc34)CC2)CC1`, the Ki in data set [4] was over 10000 nM; in [5] it was 216 nM; at D(2) dopamine receptor, over 10000 nM.

`O=S(=O)(c1ccccc1)N1CCC(CN2CCC(c3noc4cc(F)ccc34)CC2)CC1`: the values for the Ki (in data set [4]; in [5]; on D(2) dopamine receptor) were over 10000 nM, over 10000 nM and 2500 nM, respectively.

`O=S(=O)(c1cccs1)N1CCC(CN2CCC(c3noc4cc(F)ccc34)CC2)CC1`: the Ki in [4] is 165 nM; in data set [5] it was 455 nM; at D(2) dopamine receptor, 1290 nM.

The ED50 is the dose that gives a 50% effect, or the effect in half of the subjects. A word on the Ki: it is the equilibrium dissociation constant of an inhibitor or competing ligand from its target. A low value points to tighter binding.
